This is an account of results in patent US20080033026A1, “Antimicrobial compositions, methods and systems” (priority 2006, published 2008).

Type in all cases: cell-based
Experiment [1] has as its system Klebsiella pneumoniae (ATCC 4352). In words: MIC and MBC determination (broth dilution). The conditions noted are these: Mueller-Hinton Broth, 20-24 h, 37° C. As for the experimental part: (§1) The determination of the MIC and MBC of 9-decenoic acid conformed to the procedure printed in the Federal Register, June 1994 and the present NCCLS M11-A4 protocol. Challenge organisms were prepared as follows. The MIC and MBC of 9-decenoic acid and the methyl ester of 9-decenoic acid were determined for the following challenge organisms: Staphylococcus aureus (ATCC 6538), Pseudomonas aeruginosa (ATCC 15442), Staphylococcus epidermidis (ATCC 12228), Klebsiella pneumoniae (ATCC 4352), Escherichia coli 0157:H7 (ATCC 43895) and Candida albicans (ATCC 10231). Stock cultures of each organism were transferred onto suitable culture media, Mueller-Hinton Agar (MHA) plates, and incubated for 24 hours (+2 hours) at 37° C. (+2° C.). On the day of the test, the top of at least three to five well-isolated colonies were transferred via wire loop to a tube containing 4 to 5 ml of Trypticase Soy Broth (TSB). The TSB culture was incubated for 2 to 6 hours and turbidity was adjusted with sterile saline to achieve the turbidity of a McFarland 0.5 Standard.
(§2) The concentrated 9-decenoic acid (97%) was diluted in Mueller-Hinton Broth (MHB) to yield a 25,000 ppm stock solution of the 9-decenoic acid. For each organism, 12 dilutions of the 9-decenoic acid in MHB were prepared ranging from 0.25% to 0.00049%. The test solution of the methyl ester of 9-decenoic acid was formulated in the same manner.
(§3) A 2-ml aliquot of appropriately diluted 9-decenoic acid solution or methyl ester of 9-decenoic acid was placed in each tube. Each tube was inoculated with 0.05 ml of a 1:10 dilution of one challenge organism. Tubes were incubated at 37° C. (±2° C.) for 20-24 hours and observed for microbial growth visually and by spectrophotometer. […] (±2° C.) for 20-24 hours and visually observed for growth.
(§4) Controls were run for sterility, viability and organism confirmation. It was determined that all cultures were viable and pure.
(§5) The MBC was defined as the concentration of 9-decenoic acid or the methyl ester of 9-decenoic acid that completely eradicated viable organisms from the test system.
Background: Dilution methods test growth across graded concentrations, often in twofold steps.

The test system of experiment [2] is Escherichia coli 0157:H7 (ATCC 43895). In words: MIC and MBC determination (broth dilution). As for the experimental part: as §1, §2, §3, §4, §5
For experiment [3], the system named is Staphylococcus epidermidis (ATCC 12228). The experiment in a line: MIC and MBC determination (broth dilution). The note with it: subculture on TSA. The method, then:
as §1, §2, §3, §4, §5

Experiment [4] has as its system Pseudomonas aeruginosa (ATCC 15442). The experiment in a line: MIC and MBC determination (broth dilution). The conditions noted are these: Mueller-Hinton Broth, 20-24 h, 37° C. The method, then:
as §1, §2, §3, §4, §5

In experiment [5] the test system is Candida albicans (ATCC 10231). The experiment in a line: MIC and MBC determination (broth dilution). As for the experimental part:
as §1, §2, §3, §4, §5

The subject of the next experiment is all organisms. In words: Time kill test, all organisms of Example 2. The conditions noted are these: even after 10 minutes, all concentrations (0.01, 0.05 and 0.1%). As for the experimental part: The assessment of efficacy of 9-decenoic acid against a spectrum of microorganisms was determined using the American Society for Testing and Materials (ASTM) procedure entitled “Standard Test Method for the Assessment of Microbiocidal Activity of Test Materials Using a Time-Kill Procedure,” October 1998. This procedure incorporates the recommendations described in the “Manual of Clinical Microbiology,” 5th ed., edited by A. B. Balows et al., ASM, Washington, and is directed by the Federal Register, June 1994.
Challenge organisms were prepared as follows. Cultures of the following organisms were obtained: Staphylococcus aureus (ATCC 6538), Pseudomonas aeruginosa (ATCC 15442), Staphylococcus epidermidis (ATCC 12228), Klebsiella pneumoniae (ATCC 4352), Escherichia coli 0157:H7 (ATCC 43895) and Candida albicans (ATCC 10231). The stock cultures were transferred to sterile tubes and sterile tryptic soy broth (TSB) was added to the cultures. […]
Concentrated 9-decenoic acid (97%) was diluted in filter sterilized isopropanol to yield a 25,000 ppm stock solution. […] The pH was determined for each dilution; pH values ranged from 4.4-4.1. […]
At each exposure sample time, a 1.0 ml aliquot of the inoculated 9-decenoic acid suspension was transferred to 9.0 ml of D/E Neutralizing Broth. […] The plates were enumerated, recorded and log kill determined for each time point. […]

[6] abbreviates: Mueller-Hinton Broth, 20-24 h, 37° C.

Regarding `C=CCCCCCCCC(=O)OC` [Methyl ester of 9-decenoic acid, methyl ester of 9-decenoic acid], the MIC in experiment [1] was determined as 0.0625%; in experiment [2] (setting [6]) it was 0.125%; in experiment [4] it was 0.0625%; in experiment [5] (setting [6]) it was 0.0156%. Further, the MBC in experiment [2] (subculture on TSA) came to 0.125%; in experiment [3] it was 0.25%; in experiment [5] (subculture on TSA), 0.0156%. Besides, in the experiment on all organisms, the log reduction was < 1 log.
